Reference: patent US11857600B2, “GPCR heteromer inhibitors and uses thereof” (GPCR THERAPEUTICS, INC., priority 2017, dated 2024)
Entries after “also recorded” stand apart in the source; their conditions may differ.

Key:
[1] = system: patient derived cells (PDCs); experiment: Proliferation assay (ATPlite), survival of glioblastoma patient derived cells; format: cell-based; conditions: Homo sapiens, 168 h, 7 days, read-out: IC50, survival of PDC
Protocol: We prepared single cell suspensions of resected and dissociated glioblastoma tissues from patients. (provided by Samsung Seoul hospital in Seoul, Korea) These cells were cultured under conditions optimal for propagation and non-differentiation of normal neuronal stem cell. Media were composed serum free Neurobasal media supplemented with basic FGF and EGF.
After the 7-day incubation, 15 μl ATPlite was added into the each well and the plate were shaken for 5 minutes in an orbital shaker at 700 rpm. The luminescent signal was detected within 30 minutes at PerkinElmer TopCount detection instrument. The cell viability was calculated using the equation: Cell viability(%)=(OD of antagonist treatment/OD of DMSO only treatment)×100%.
PDCs were seeded in 384-well plate at 500 ea/well in 40 ul culture media. After overnight growth, the cells were cultured for 7 days in the presence of several dose of GPCRx antagonist or DMSO alone. […] The luminescent signal was detected within 30 minutes at PerkinElmer TopCount detection instrument. The cell viability was calculated using the equation: Cell viability (%)=(OD of antagonist treatment/OD of DMSO only treatment)×100%.

CXCR4-CHRM1 heteromer [2] = target: T1, CXCR4-CHRM1 heteromer (Homo sapiens, UniProt P11229); experiment: Internalization inhibition assay, CXCR4-GFP U-2 OS cells transduced with CHRM1; format: cell-based; conditions: 20 minutes
T1 construct: expressed in transfected cells; host or cells: U-2 OS cells stably expressing CXCR4-GFP, transduced with CHRM1 adenovirus
Protocol: Cells co-expressing CXCR4-GFP and GPCRx are treated with CXCL12 (SDF-1) and/or GPCRx specific antagonist.
(FIG. 10A) CXCR4-ADRB2; (FIG. 10B) CXCR4-CHRM1; and (FIG. 10C) CXCR4-HRH1. (FIG. 10A) CXCR4-GFP expressing U-2 OS cells were transduced with adenovirus encoding ADRB2. […] (FIG. 10B) CXCR4-GFP expressing U-2 OS cells were transduced with adenovirus encoding CHRM1. […] (FIG. 10C) CXCR4-GFP expressing U-2 OS cells were transduced with adenovirus encoding HRH1.
U-2 OS cells stably expressing CXCR4-GFP were transduced with Adenoviruses encoding GPCRx (ADRB2, CHRM1, HRH1). After 2 days, images were obtained before and 20 minutes after stimulating cells with CXCR4-specific agonist, CXCL12 (SDF-1) (20 nM), and/or GPCRx-specific antagonist (10 μM). Internalization of CXCR4-GFP was observed as GFP granules using IN Cell Analyzer 2500. Loss of GFP expression on the cell surface or appearance of GFP granules inside the cells were considered as CXCR4-GFP co-internalization.
CXCR4-GFP expressed U-2 OS cells were seeded at a density of 5000 cells per well in a black 96-well clear-bottom plate in 100 μl of McCoy's 5A medium supplemented with 10% FBS. On the following day, the cells were transduced with adenoviruses encoding GPCRx (30 MOI). Two days post-transduction, cells were stimulated with SDF-1 and/or GPCRx agonists for 20 min and fixed with 4% paraformaldehyde.

CXCR4-CHRM1 heteromer [3] = target: CXCR4-CHRM1 heteromer (Homo sapiens, UniProt P11229+P61073); conditions: antagonist 1 μM; FIG. 8B
Protocol: MDA-MB-231 cells were co-transduced with adenoviruses encoding CXCR4 and GPCRx. […] In F &G, cells were transduced with adenoviruses encoding CXCR4, and endogenous HRH1 responses were examined with 50 nM of histamine. Cells were incubated with Cal-520 AM for 2 hr, GPCR antagonists or vehicle for 30 min, and stimulated with indicated amounts of CXCL12, GPCRx agonist, or CXCL12 and GPCRx agonist.
The next day, cells were co-transduced with 10 MOI of CXCR4 and 30 MOI of HA-VC, 10 MOI of HA-VC and 30 MOI of GPCRx, or 10 MOI of CXCR4 and 30 MOI of GPCRx. Adenoviruses encoding HA-VC were used to adjust the total amount of adenoviruses transduced. After 2 days, cells were washed twice with assay buffer (Hank's balanced salt solution without phenol red, supplemented with 0.1% BSA and 20 mM HEPES, pH7.4), and stained with 5 μg/ml of Cal-520 AM (AAT Bioquest, Sunnyvale, CA, USA) diluted in assay buffer for 2 hr. Cells were washed with assay buffer three times, and incubated at 37° C. for another 30 min. Plate was loaded on a FlexStation 3 Multi-Mode Microplate Reader (Molecular Devices, Sunnyvale, CA, USA) and GPCRx agonists were added. […] Antagonists or vehicles were added 30 min before agonist treatment.

CXCR4-EDNRB heteromer = target: T2, CXCR4-EDNRB heteromer (Homo sapiens, UniProt P24530+P61073); experiment: Calcium mobilization assay, enhanced signaling of CXCR4-EDNRB heteromer in MDA-MB-231 cells; format: cell-based; conditions: antagonist(s) 1 μM; FIG. 8E
T2 construct: expressed in transfected cells
Protocol: (§1) The efficiency of CXCR4 inhibitors in suppressing the enhanced signaling of CXCR4-EDNRB heteromer was measured in the absence or presence of the representative EDNRB inhibitors ambrisentan or bosentan (Table 12). […] Inhibitors were treated 30 min before agonist stimulation. Ca2+ mobilization was measured as described in FIG. 5, and IC50 values were calculated using GraphPad Prism software.

CXCR4-HRH1 heteromer = target: T3, CXCR4-HRH1 heteromer (Homo sapiens, UniProt P35367+P61073); experiment: Calcium mobilization assay, enhanced signaling of CXCR4-HRH1 heteromer in MDA-MB-231 cells; format: cell-based; conditions: antagonist 1 μM; cells transduced with CXCR4, endogenous HRH1, 50 nM histamine; FIGS. 8F, 8G
T3 construct: expressed in transfected cells
Protocol: as §1, with “CXCR4-HRH1” for “CXCR4-EDNRB”, “HRH1” for “EDNRB”, “Hydroxyzine, Prometazine,” for “ambrisentan”, “Cyproheptadine” for “bosentan”, “8).” for “12).”

CXCR4-NTSR1 heteromer = target: T4, CXCR4-NTSR1 heteromer (Homo sapiens, UniProt P30989+P61073); experiment: Calcium mobilization assay, enhanced signaling in MDA-MB-231 cells co-expressing CXCR4 and NTSR1; format: cell-based; conditions: antagonist 1 μM; FIG. 8K
T4 construct: expressed in transfected cells

MDA-MB-231 cells = experiment: Chemotactic migration assay; format: cell-based, human; conditions: cells transduced with 1 MOI CXCR4 lentivirus; CXCL12 30 nM, histamine 50 nM; pyrilamine 1 μM
Protocol: Chemotaxis was quantified by counting the migrated cells on the lower surface of the membrane of 10 fields per chamber. (FIG. 19A) A representative picture of each group. […] The data represent mean±SEM (n=3 or 5). Statistically significant differences were determined by Student's t test. *P<0.05.
Since MDA-MB-231 cells express about twice more HRH1 mRNA compared with CXCR4 mRNA when measured by RT-qPCR, the MDA-MB-231 cells were transduced with small amount of lentivirus encoding CXCR4 (1 MOI) and chemotactic migration of the cells toward CXCL12 and […] was measured (FIGS. 19A and 19B).
Transwell plates (8 μm pore size polycarbonate membrane, 6.5-mm diameter) were coated with 50 μg/mL collagen for 2 h at 37° C. (Corning Inc.). MDA-MB-231 cells were serum-starved 24 h and then plated in serum-free medium containing 0.5% BSA in the top chamber (20,000 cells/100 μL). Antagonists or inverse agonists were added to the cells 30 min before plating the cells in the transwell plates. Attractants were added in the bottom chamber. Antagonists or inverse agonists were also included in the bottom chamber. After 3 h at 37° C., cells on the top transwell membrane were removed using a cotton swab, fixed, and stained with 0.1% Crystal violet. Chemotaxis was quantified by counting the migrated cells on the lower surface of the membrane of 10 fields per chamber at 10× objective.

CXCR4 = target: T5, CXCR4 (Homo sapiens, UniProt P61073); experiment: Calcium mobilization assay in MDA-MB-231 cells expressing CXCR4 alone; format: cell-based; conditions: approximate; concentration used to stimulate the cells; read-out: EC50 concentration against CXCR4
T5 construct: expressed in transfected cells
Protocol: The cells were then stained with Cal-6 for 2 hours and stimulated with CXCR4 agonsit (CXCL12; 20 nM) and ADRB2 agonist (Salmeterol; 1 μM).

[4] = system: A549-CXCR4-ADRB2 cell line stably overexpressing CXCR4-ADRB2 heteromer; experiment: Anti-tumor effect in nude mice transplanted with A549-CXCR4-ADRB2 cells; format: in vivo, mouse; conditions: LY2510924 3 mg/kg subcutaneously, Carvedilol 30 mg/kg orally, once a day; vehicle 554.2±152.7
Protocol: To investigate the anti-tumor effect of CXCR4-ADRB2 heteromer inhibitors on tumor growth, the A549-CXCR4-ADRB2, stably overexpressing CXCR4-ADRB2 heteromer (1×10^7 cell/head) was injected subcutaneously in nude mice. When tumor sizes were reached an average of 50-100 mm^3, CXCR4 inhibitor, ADRB2 inhibitor alone or combination of CXCR4 and ADRB2 inhibitors were treated.
The tumor growth was monitored every third or fourth day by measuring the length (L) and width (W) of the tumor and calculating tumor volume based on the following formula: Volume=0.5 LW^2.
Five week-old, female Balb/c-nu/nu mice were obtained from Envigo (France) and maintained in specific pathogen-free animal facility. All protocols for animal use and euthanasia were approved by the Qubest Bio (South Korea) Animal Experimental Ethics Committee based on the Animal Protection Act. The 1×10^7 cells of A549, A549-CXCR4 or A549-CXCR4-ADRB2 were suspended in 100 μL of phosphate-buffered saline (PBS) and were implanted by subcutaneously in axillary region between the clavicular and chest wall on the right side of the mouse. The tumor growth was monitored every third or fourth day by measuring the length (L) and width (W) of the tumor with an electronic caliper and calculating tumor volume in the basis of the following formula: Volume=0.5 LW^2.
For the antitumor efficacy test using CXCR4 and ADRB2 inhibitor, A549-CXCR4-ADRB2 cell line overexpressing CXCR4 and ADRB2 in A549, lung cancer cell line was subcutaneously administered (1×10^7 cell in 100 μL PBS/head) to BALB/c-nu. […] The tumor growth was monitored every third or fourth day by measuring the length (L) and width (W) of the tumor: Volume=0.5 LW^2.

T1 sequence (P11229 whole entry): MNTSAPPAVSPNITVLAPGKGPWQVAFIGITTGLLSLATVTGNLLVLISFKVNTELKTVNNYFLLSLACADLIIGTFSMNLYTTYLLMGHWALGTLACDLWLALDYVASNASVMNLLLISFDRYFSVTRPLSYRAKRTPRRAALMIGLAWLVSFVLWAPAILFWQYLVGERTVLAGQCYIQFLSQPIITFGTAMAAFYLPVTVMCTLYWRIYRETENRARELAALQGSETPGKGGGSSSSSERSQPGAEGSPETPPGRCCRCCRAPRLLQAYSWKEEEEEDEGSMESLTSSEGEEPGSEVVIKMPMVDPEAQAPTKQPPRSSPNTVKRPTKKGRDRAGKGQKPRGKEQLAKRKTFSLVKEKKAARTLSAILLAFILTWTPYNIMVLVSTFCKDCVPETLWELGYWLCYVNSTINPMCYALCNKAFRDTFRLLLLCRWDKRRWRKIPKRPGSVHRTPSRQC
T1 sequence (P61073 whole entry partner): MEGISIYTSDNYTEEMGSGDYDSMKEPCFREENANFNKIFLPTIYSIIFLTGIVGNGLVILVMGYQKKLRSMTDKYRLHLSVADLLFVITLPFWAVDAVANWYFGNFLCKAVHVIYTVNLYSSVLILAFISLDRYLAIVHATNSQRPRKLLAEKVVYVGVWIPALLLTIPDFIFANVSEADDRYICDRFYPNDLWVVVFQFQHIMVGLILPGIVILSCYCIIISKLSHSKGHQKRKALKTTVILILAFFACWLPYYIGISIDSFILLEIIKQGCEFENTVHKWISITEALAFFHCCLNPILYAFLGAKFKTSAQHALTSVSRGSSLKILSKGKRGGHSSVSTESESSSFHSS
T2 sequence (P61073 whole entry): as the sequence (P61073 whole entry partner) above
T2 sequence (P24530 27-442): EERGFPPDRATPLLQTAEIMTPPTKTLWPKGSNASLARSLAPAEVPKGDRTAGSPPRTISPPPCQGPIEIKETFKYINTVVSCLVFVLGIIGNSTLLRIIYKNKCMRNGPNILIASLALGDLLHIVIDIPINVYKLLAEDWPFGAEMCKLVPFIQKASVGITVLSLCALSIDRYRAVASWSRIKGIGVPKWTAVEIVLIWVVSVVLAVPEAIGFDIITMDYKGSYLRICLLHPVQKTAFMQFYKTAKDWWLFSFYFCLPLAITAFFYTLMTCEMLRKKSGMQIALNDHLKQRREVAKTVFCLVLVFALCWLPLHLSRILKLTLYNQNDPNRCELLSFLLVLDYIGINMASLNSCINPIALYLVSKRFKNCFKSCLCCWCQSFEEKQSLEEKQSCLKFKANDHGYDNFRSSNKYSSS
T5 sequence (P61073 whole entry): as the sequence (P61073 whole entry partner) above
T3 sequence (P61073 whole entry): as the sequence (P61073 whole entry partner) above
T3 sequence (P35367 whole entry): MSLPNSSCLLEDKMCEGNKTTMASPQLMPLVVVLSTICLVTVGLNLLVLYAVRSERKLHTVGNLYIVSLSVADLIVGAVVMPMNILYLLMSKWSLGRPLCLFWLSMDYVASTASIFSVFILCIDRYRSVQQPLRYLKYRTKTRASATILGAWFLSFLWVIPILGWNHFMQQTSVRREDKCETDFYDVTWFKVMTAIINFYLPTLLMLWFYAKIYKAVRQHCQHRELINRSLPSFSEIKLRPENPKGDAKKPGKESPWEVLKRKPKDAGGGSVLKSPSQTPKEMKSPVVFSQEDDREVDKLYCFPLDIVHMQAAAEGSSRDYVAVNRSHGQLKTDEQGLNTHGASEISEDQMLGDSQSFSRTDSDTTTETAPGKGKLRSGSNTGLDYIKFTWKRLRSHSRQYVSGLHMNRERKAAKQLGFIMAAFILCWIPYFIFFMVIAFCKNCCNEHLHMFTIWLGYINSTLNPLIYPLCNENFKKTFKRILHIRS
T4 sequence (P61073 whole entry): as the sequence (P61073 whole entry partner) above
T4 sequence (P30989 whole entry): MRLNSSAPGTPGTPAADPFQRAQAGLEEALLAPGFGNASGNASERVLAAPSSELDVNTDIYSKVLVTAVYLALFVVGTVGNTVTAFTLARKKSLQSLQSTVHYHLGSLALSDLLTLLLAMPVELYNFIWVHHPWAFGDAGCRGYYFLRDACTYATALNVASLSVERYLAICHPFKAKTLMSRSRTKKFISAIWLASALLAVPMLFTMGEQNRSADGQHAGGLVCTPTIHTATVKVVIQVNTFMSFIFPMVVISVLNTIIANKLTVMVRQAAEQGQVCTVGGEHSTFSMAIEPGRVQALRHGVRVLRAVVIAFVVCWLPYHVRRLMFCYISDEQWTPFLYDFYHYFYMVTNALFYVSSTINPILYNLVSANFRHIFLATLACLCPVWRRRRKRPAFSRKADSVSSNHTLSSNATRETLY
Chain of CXCR4-CHRM1 heteromer (Homo sapiens, UniProt P11229+P61073) (P61073 whole entry): as the sequence (P61073 whole entry partner) above
Chain of CXCR4-CHRM1 heteromer (Homo sapiens, UniProt P11229+P61073) (P11229 whole entry): as the sequence (P11229 whole entry) above

## OC(c1ccccc1)(c1ccccc1)C12CC[N+](CCOCc3ccccc3)(CC1)CC2 [Umeclidinium]
[1]
  IC50: 4030 nM
CXCR4-CHRM1 heteromer [2]; CXCL12 20 nM with antagonist 10 μM
  inhibition of CXCL12 induced CXCR4-CHRM1 internalization: inhibited CXCL12 induced CXCR4-CHRM1 internalization
CXCR4-CHRM1 heteromer [2]; antagonist 10 μM
  internalization of CXCR4-CHRM1 by antagonist alone: did not induce internalization; also recorded: had no effect on the internalization of the heteromer

## O=C(CCNS(=O)(=O)c1cccc2nsnc12)N1CCN(c2ccncc2)CC1 [VU0255035]
CXCR4-CHRM1 heteromer [3]
  suppression of enhanced calcium signaling upon co-stimulation with CXCL12 and CHRM1 agonist: suppressed the enhanced calcium signaling significantly

## COc1ccccc1Oc1c(NS(=O)(=O)c2ccc(C(C)(C)C)cc2)nc(-c2ncccn2)nc1OCCO [bosentan]
CXCR4-EDNRB heteromer
  suppression of enhanced calcium response upon co-stimulation with CXCL12 and EDNRB agonist: failed to inhibit enhanced calcium response significantly

## O=C(O)COCCN1CCN(C(c2ccccc2)c2ccc(Cl)cc2)CC1 (stereo not shown) [cetirizine]
CXCR4-HRH1 heteromer
  suppression of enhanced calcium signaling upon co-stimulation with CXCL12 and histamine: suppressed the enhanced calcium signaling significantly

## COc1cccc(OC)c1-c1cc(C(=O)NC2(C(=O)O)C3CC4CC(C3)CC2C4)nn1-c1ccnc2cc(Cl)ccc12 (stereo not shown) [meclinertant]
CXCR4-NTSR1 heteromer
  suppression of enhanced calcium signaling upon co-stimulation with CXCL12 and NTSR1 agonist: suppressed the enhanced calcium signaling significantly

## COc1ccc(CN(CCN(C)C)c2ccccn2)cc1 [pyrilamine]
MDA-MB-231 cells
  effect on enhanced migration upon co-stimulation with CXCL12 and histamine: completely abolished the enhanced response; also recorded: failed to enhance the cell migration elicited by CXCL12

## CXCL12: C-X-C Motif Chemokine ligand 12, CXCR4 agonist
CXCR4
  EC50: ~15 nM

## LY2510924
[4]
  average tumor volume at day 21 post-treatment: 488.9±135.2 mm^3
